Laboratory results taken from ChEMBL document CHEMBL1131864, “Effects of sesquiterpenes and triterpenes from the rhizome of Alisma orientale on nitric oxide production in lipopolysaccharide-activated macrophages: absolute stereostructures of alismaketones-B 23-acetate and -C 23-acetate” (Bioorg Med Chem Lett, 1999).

Species on record: Mus musculus
Assay: Inhibition of nitric oxide production in LPS-activated mouse macrophages at a concentration of 3 uM
Format: functional

Row | Compound | inhibition at 3 µM [%]
1 | C=C1CCC(C(C)C)=CC2C1CC[C@]2(C)O (stereo partly drawn) | 17.6
2 | C[C@@H]1CC([C@H]2OC2(C)C)OC2C[C@@]3(C)C(=C21)CCC1[C@@]2(C)CCC(=O)C(C)(C)C2CC[C@@]13C (stereo partly drawn) | 21.7
3 | CC(C)C1=CC2C(CC[C@]2(C)O)[C@@](O)(CS(=O)(=O)O)CC1 (stereo partly drawn) | -2.2
4 | C[C@H](CC(=O)CC(C)(C)O)C1=C2CCC3[C@@]4(C)CCC(=O)C(C)(C)C4CC[C@]3(C)[C@@]2(C)CC1=O (stereo partly drawn) | 17.2
5 | CC(C)C1=CC2C(CC[C@]2(C)O)[C@](C)(O)CC1 (stereo partly drawn) | -1.8
6 | CC(=O)O[C@@H](C[C@@H](C)C1=C2C[C@H](O)C3[C@@]4(C)CCC(=O)C(C)(C)C4CC[C@]3(C)[C@@]2(C)CC1=O)[C@H]1OC1(C)C (stereo partly drawn) | 13.3
7 | C=C1CC[C@@]2(C(C)C)O[C@H]2C2C1CC[C@]2(C)O (stereo partly drawn) | 5
8 | CC(=O)O[C@@H](C[C@@H](C)C1=C2C[C@H](O)C3[C@@]4(C)CCC(=O)C(C)(C)C4CC[C@]3(C)[C@@]2(C)CC1)[C@H](O)C(C)(C)O (stereo partly drawn) | 10

Species on record: Mus musculus
Assay: Concentration required for inhibition of nitric oxide production in LPS-activated mouse macrophages
Format: functional

Row | Compound | IC50 [µM]
9 | C=C1CCC(C(C)C)=CC2C1CC[C@]2(C)O (stereo partly drawn) | 23
10 | C[C@@H]1CC([C@H]2OC2(C)C)OC2C[C@@]3(C)C(=C21)CCC1[C@@]2(C)CCC(=O)C(C)(C)C2CC[C@@]13C (stereo partly drawn) | 12
11 | CC(C)C1=CC2C(CC[C@]2(C)O)[C@@](O)(CS(=O)(=O)O)CC1 (stereo partly drawn) | > 100
12 | C[C@H](CC(=O)CC(C)(C)O)C1=C2CCC3[C@@]4(C)CCC(=O)C(C)(C)C4CC[C@]3(C)[C@@]2(C)CC1=O (stereo partly drawn) | 17
13 | CC(C)C1=CC2C(CC[C@]2(C)O)[C@](C)(O)CC1 (stereo partly drawn) | > 100
14 | CC(=O)O[C@@H](C[C@@H](C)C1=C2C[C@H](O)C3[C@@]4(C)CCC(=O)C(C)(C)C4CC[C@]3(C)[C@@]2(C)CC1=O)[C@H]1OC1(C)C (stereo partly drawn) | 42
15 | C=C1CC[C@@]2(C(C)C)O[C@H]2C2C1CC[C@]2(C)O (stereo partly drawn) | 53
16 | CC(=O)O[C@@H](C[C@@H](C)C1=C2C[C@H](O)C3[C@@]4(C)CCC(=O)C(C)(C)C4CC[C@]3(C)[C@@]2(C)CC1)[C@H](O)C(C)(C)O (stereo partly drawn) | 16

Species on record: Mus musculus
Assay: Inhibition of nitric oxide production in LPS-activated mouse macrophages at a concentration of 100 uM
Format: functional

Row | Compound | inhibition at 100 µM [%]
17 | C=C1CCC(C(C)C)=CC2C1CC[C@]2(C)O (stereo partly drawn) | 97.4
18 | C[C@@H]1CC([C@H]2OC2(C)C)OC2C[C@@]3(C)C(=C21)CCC1[C@@]2(C)CCC(=O)C(C)(C)C2CC[C@@]13C (stereo partly drawn) | 100
19 | CC(C)C1=CC2C(CC[C@]2(C)O)[C@@](O)(CS(=O)(=O)O)CC1 (stereo partly drawn) | 21.3
20 | C[C@H](CC(=O)CC(C)(C)O)C1=C2CCC3[C@@]4(C)CCC(=O)C(C)(C)C4CC[C@]3(C)[C@@]2(C)CC1=O (stereo partly drawn) | 97.2
21 | CC(C)C1=CC2C(CC[C@]2(C)O)[C@](C)(O)CC1 (stereo partly drawn) | 33.1
22 | CC(=O)O[C@@H](C[C@@H](C)C1=C2C[C@H](O)C3[C@@]4(C)CCC(=O)C(C)(C)C4CC[C@]3(C)[C@@]2(C)CC1=O)[C@H]1OC1(C)C (stereo partly drawn) | 67.3
23 | C=C1CC[C@@]2(C(C)C)O[C@H]2C2C1CC[C@]2(C)O (stereo partly drawn) | 74.9
24 | CC(=O)O[C@@H](C[C@@H](C)C1=C2C[C@H](O)C3[C@@]4(C)CCC(=O)C(C)(C)C4CC[C@]3(C)[C@@]2(C)CC1)[C@H](O)C(C)(C)O (stereo partly drawn) | 104

Species on record: Mus musculus
Assay: Inhibition of nitric oxide production in LPS-activated mouse macrophages at a concentration of 30 uM
Format: functional

Row | Compound | inhibition at 30 µM [%]
25 | C=C1CCC(C(C)C)=CC2C1CC[C@]2(C)O (stereo partly drawn) | 57.5
26 | C[C@@H]1CC([C@H]2OC2(C)C)OC2C[C@@]3(C)C(=C21)CCC1[C@@]2(C)CCC(=O)C(C)(C)C2CC[C@@]13C (stereo partly drawn) | 84.2
27 | CC(C)C1=CC2C(CC[C@]2(C)O)[C@@](O)(CS(=O)(=O)O)CC1 (stereo partly drawn) | 16.3
28 | C[C@H](CC(=O)CC(C)(C)O)C1=C2CCC3[C@@]4(C)CCC(=O)C(C)(C)C4CC[C@]3(C)[C@@]2(C)CC1=O (stereo partly drawn) | 71.3
29 | CC(C)C1=CC2C(CC[C@]2(C)O)[C@](C)(O)CC1 (stereo partly drawn) | 12
30 | CC(=O)O[C@@H](C[C@@H](C)C1=C2C[C@H](O)C3[C@@]4(C)CCC(=O)C(C)(C)C4CC[C@]3(C)[C@@]2(C)CC1=O)[C@H]1OC1(C)C (stereo partly drawn) | 43.8
31 | C=C1CC[C@@]2(C(C)C)O[C@H]2C2C1CC[C@]2(C)O (stereo partly drawn) | 29.2
32 | CC(=O)O[C@@H](C[C@@H](C)C1=C2C[C@H](O)C3[C@@]4(C)CCC(=O)C(C)(C)C4CC[C@]3(C)[C@@]2(C)CC1)[C@H](O)C(C)(C)O (stereo partly drawn) | 81

Species on record: Mus musculus
Assay: Inhibition of nitric oxide production in LPS-activated mouse macrophages at a concentration of 10 uM
Format: functional

Row | Compound | inhibition at 10 µM [%]
33 | C=C1CCC(C(C)C)=CC2C1CC[C@]2(C)O (stereo partly drawn) | 27
34 | C[C@@H]1CC([C@H]2OC2(C)C)OC2C[C@@]3(C)C(=C21)CCC1[C@@]2(C)CCC(=O)C(C)(C)C2CC[C@@]13C (stereo partly drawn) | 31.2
35 | CC(C)C1=CC2C(CC[C@]2(C)O)[C@@](O)(CS(=O)(=O)O)CC1 (stereo partly drawn) | 4.9
36 | C[C@H](CC(=O)CC(C)(C)O)C1=C2CCC3[C@@]4(C)CCC(=O)C(C)(C)C4CC[C@]3(C)[C@@]2(C)CC1=O (stereo partly drawn) | 26.7
37 | CC(C)C1=CC2C(CC[C@]2(C)O)[C@](C)(O)CC1 (stereo partly drawn) | 0.4
38 | CC(=O)O[C@@H](C[C@@H](C)C1=C2C[C@H](O)C3[C@@]4(C)CCC(=O)C(C)(C)C4CC[C@]3(C)[C@@]2(C)CC1=O)[C@H]1OC1(C)C (stereo partly drawn) | 21.1
39 | C=C1CC[C@@]2(C(C)C)O[C@H]2C2C1CC[C@]2(C)O (stereo partly drawn) | 14.1
40 | CC(=O)O[C@@H](C[C@@H](C)C1=C2C[C@H](O)C3[C@@]4(C)CCC(=O)C(C)(C)C4CC[C@]3(C)[C@@]2(C)CC1)[C@H](O)C(C)(C)O (stereo partly drawn) | 32.1

Species on record: Mus musculus
Assay: Inhibition of nitric oxide production in LPS-activated mouse macrophages at a concentration of 1 uM
Format: functional

Row | Compound | inhibition at 1 µM [%]
41 | C=C1CCC(C(C)C)=CC2C1CC[C@]2(C)O (stereo partly drawn) | 3.4
42 | C[C@@H]1CC([C@H]2OC2(C)C)OC2C[C@@]3(C)C(=C21)CCC1[C@@]2(C)CCC(=O)C(C)(C)C2CC[C@@]13C (stereo partly drawn) | -5.1
43 | CC(C)C1=CC2C(CC[C@]2(C)O)[C@@](O)(CS(=O)(=O)O)CC1 (stereo partly drawn) | 2.8
44 | C[C@H](CC(=O)CC(C)(C)O)C1=C2CCC3[C@@]4(C)CCC(=O)C(C)(C)C4CC[C@]3(C)[C@@]2(C)CC1=O (stereo partly drawn) | -5.1
45 | CC(C)C1=CC2C(CC[C@]2(C)O)[C@](C)(O)CC1 (stereo partly drawn) | -2.5
46 | CC(=O)O[C@@H](C[C@@H](C)C1=C2C[C@H](O)C3[C@@]4(C)CCC(=O)C(C)(C)C4CC[C@]3(C)[C@@]2(C)CC1=O)[C@H]1OC1(C)C (stereo partly drawn) | 2.9
47 | C=C1CC[C@@]2(C(C)C)O[C@H]2C2C1CC[C@]2(C)O (stereo partly drawn) | 0.9
48 | CC(=O)O[C@@H](C[C@@H](C)C1=C2C[C@H](O)C3[C@@]4(C)CCC(=O)C(C)(C)C4CC[C@]3(C)[C@@]2(C)CC1)[C@H](O)C(C)(C)O (stereo partly drawn) | 9.2
